# Test results: ChEMBL document CHEMBL5444388, “Affinity Phenotypic Cellular Literature for EUbOPEN Chemogenomic Library” (2024)
# Tests used:
# [1] = target: T1, Cytoplasmic tyrosine-protein kinase BMX (Homo sapiens) (UniProt P51813); assay: Affinity Phenotypic Cellular interaction: (Antiproliferative activity assay (prostate cancer cell line, RV-1)) EUB0000045b BMX; format: functional, cell-based; design: recommended concentration 1 uM; conditions: CWR22R, Affinity Phenotypic Cellular Source Knowledge https://pubmed.ncbi.nlm.nih.gov/23594111/
# T1 sequence (whole entry): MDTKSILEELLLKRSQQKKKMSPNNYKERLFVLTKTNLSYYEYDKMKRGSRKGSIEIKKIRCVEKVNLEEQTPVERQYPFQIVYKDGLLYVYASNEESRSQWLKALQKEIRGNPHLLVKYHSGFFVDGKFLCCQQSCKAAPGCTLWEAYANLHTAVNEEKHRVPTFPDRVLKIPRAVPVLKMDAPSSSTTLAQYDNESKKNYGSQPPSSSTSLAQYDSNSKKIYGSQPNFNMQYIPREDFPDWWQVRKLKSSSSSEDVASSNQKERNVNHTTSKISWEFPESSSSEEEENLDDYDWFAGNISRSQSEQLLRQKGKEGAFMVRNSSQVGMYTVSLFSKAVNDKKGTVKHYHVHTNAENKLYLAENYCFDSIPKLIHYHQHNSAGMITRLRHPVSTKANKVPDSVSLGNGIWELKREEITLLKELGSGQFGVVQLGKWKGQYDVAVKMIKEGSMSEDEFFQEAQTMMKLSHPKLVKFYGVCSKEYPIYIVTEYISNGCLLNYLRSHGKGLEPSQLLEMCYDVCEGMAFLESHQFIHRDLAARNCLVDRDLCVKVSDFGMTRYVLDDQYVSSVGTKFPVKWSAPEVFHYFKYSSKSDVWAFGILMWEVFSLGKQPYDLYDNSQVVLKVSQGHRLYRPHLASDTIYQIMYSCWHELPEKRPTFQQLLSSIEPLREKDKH
# [2] = target: Tyrosine-protein kinase BTK (Homo sapiens) (UniProt Q06187); conditions: BaF3, Affinity Phenotypic Cellular Source Knowledge https://pubmed.ncbi.nlm.nih.gov/23594111/
# [3] = target: T1, Cytoplasmic tyrosine-protein kinase BMX (Homo sapiens); assay: Affinity Phenotypic Cellular interaction: (Antiproliferative activity against Tel-kinase transformed Cys496Ser Ba/F3 cell line, TEL-BMX) EUB0000045b BMX; format: functional, cell-based; design: recommended concentration 1 uM; conditions: BaF3, Affinity Phenotypic Cellular Source Knowledge https://pubmed.ncbi.nlm.nih.gov/23594111/
# [4] = target: T1, Cytoplasmic tyrosine-protein kinase BMX (Homo sapiens); assay: Affinity Phenotypic Cellular interaction: (Antiproliferative activity assay (prostate cancer cell line, VCAP)) EUB0000045b BMX; format: functional, cell-based; design: recommended concentration 1 uM; conditions: Affinity Phenotypic Cellular Source Knowledge https://pubmed.ncbi.nlm.nih.gov/23594111/
# [5] = target: Tyrosine-protein kinase BTK (Homo sapiens) (UniProt Q06187); conditions: PC-3, Affinity Phenotypic Cellular Source Knowledge https://pubmed.ncbi.nlm.nih.gov/23594111/
# [6] = target: Tyrosine-protein kinase BTK (Homo sapiens) (UniProt Q06187); conditions: VCaP, Affinity Phenotypic Cellular Source Knowledge https://pubmed.ncbi.nlm.nih.gov/23594111/
# [7] = target: Tyrosine-protein kinase BTK (Homo sapiens) (UniProt Q06187); conditions: CWR22R, Affinity Phenotypic Cellular Source Knowledge https://pubmed.ncbi.nlm.nih.gov/23594111/
# [8] = target: Tyrosine-protein kinase BTK (Homo sapiens) (UniProt Q06187); conditions: LNCaP C4-2, Affinity Phenotypic Cellular Source Knowledge https://pubmed.ncbi.nlm.nih.gov/23594111/
# [9] = target: T1, Cytoplasmic tyrosine-protein kinase BMX (Homo sapiens); assay: Affinity Phenotypic Cellular interaction: (Antiproliferative activity against Tel-kinase wt Ba/F3 cell line) EUB0000045b BMX; format: functional, cell-based; design: recommended concentration 1 uM; conditions: BaF3, Affinity Phenotypic Cellular Source Knowledge https://pubmed.ncbi.nlm.nih.gov/23594111/
# [10] = target: T1, Cytoplasmic tyrosine-protein kinase BMX (Homo sapiens); assay: Affinity Phenotypic Cellular interaction: (Antiproliferative activity assay (prostate cancer cell line, C4-2)) EUB0000045b BMX; format: functional, cell-based; design: recommended concentration 1 uM; conditions: LNCaP C4-2, Affinity Phenotypic Cellular Source Knowledge https://pubmed.ncbi.nlm.nih.gov/23594111/
# [11] = target: T1, Cytoplasmic tyrosine-protein kinase BMX (Homo sapiens); assay: Affinity Phenotypic Cellular interaction: (Antiproliferative activity against Tel-kinase transformed Ba/F3 cell line, TEL-BMX) EUB0000045b BMX; format: functional, cell-based; design: recommended concentration 1 uM; conditions: BaF3, Affinity Phenotypic Cellular Source Knowledge https://pubmed.ncbi.nlm.nih.gov/23594111/
# [12] = target: T1, Cytoplasmic tyrosine-protein kinase BMX (Homo sapiens); assay: Affinity Phenotypic Cellular interaction: (Antiproliferative activity assay (prostate cancer cell line, PC-3)) EUB0000045b BMX; format: functional, cell-based; design: recommended concentration 1 uM; conditions: Affinity Phenotypic Cellular Source Knowledge https://pubmed.ncbi.nlm.nih.gov/23594111/
# [13] = target: Tyrosine-protein kinase BTK (Homo sapiens) (UniProt Q06187); conditions: DU-145, Affinity Phenotypic Cellular Source Knowledge https://pubmed.ncbi.nlm.nih.gov/23594111/
# [14] = target: T1, Cytoplasmic tyrosine-protein kinase BMX (Homo sapiens); assay: Affinity Phenotypic Cellular interaction: (Antiproliferative activity assay (prostate cancer cell line, DU-145)) EUB0000045b BMX; format: functional, cell-based; design: recommended concentration 1 uM; conditions: Affinity Phenotypic Cellular Source Knowledge https://pubmed.ncbi.nlm.nih.gov/23594111/
# [15] = target: Protein-arginine deiminase type-4 (Homo sapiens, UniProt Q9UM07); format: functional
# Activated CDC42 kinase 1 = Activated CDC42 kinase 1 (Homo sapiens, UniProt Q07912); format: functional, cell-based, T-cell
# [16] = target: Protein arginine N-methyltransferase 7 (Homo sapiens, UniProt Q9NVM4); assay: Affinity Phenotypic Cellular interaction: (HSP70 monomethylation in C2C12 cells) EUB0000236b PRMT7; format: functional, cell-based; design: mode of action Negative control for SGC3027, recommended concentration 1 uM
# [17] = target: Serine/threonine-protein kinase mTOR (Homo sapiens) (UniProt P42345); assay: Affinity Phenotypic Cellular interaction: (Anti-phosphorylation of AKT(S473) and S6K(T389) in insulin-like growth factor-I (IGF-I)-induced Rat1, the PIK3CA mutant MDA361, and PTEN-null U87MG cells) EUB0000607a MTOR; format: functional, cell-based; design: recommended concentration 1 uM; conditions: Affinity Phenotypic Cellular Source Knowledge https://pubmed.ncbi.nlm.nih.gov/20068177/
# [18] = target: Serine/threonine-protein kinase pim-2 (Homo sapiens) (UniProt Q9P1W9); assay: Affinity Phenotypic Cellular interaction: (Antiproliferative activity against AML cell lines (EOL-1, KG-1a, Kasumi-3, MV4-11, MOLM-16)) EUB0001547a PIM2; format: functional; design: recommended concentration 100 nM; conditions: Affinity Phenotypic Cellular Source Knowledge https://ashpublications.org/blood/article/123/6/905/32601/AZD1208-a-potent-and-selective-pan-Pim-kinase
# [19] = target: Serine/threonine-protein kinase pim-1 (Homo sapiens) (UniProt P11309); conditions: Affinity Phenotypic Cellular Source Knowledge https://ashpublications.org/blood/article/123/6/905/32601/AZD1208-a-potent-and-selective-pan-Pim-kinase
# [20] = target: Serine/threonine-protein kinase pim-3 (Homo sapiens) (UniProt Q86V86); conditions: Affinity Phenotypic Cellular Source Knowledge https://ashpublications.org/blood/article/123/6/905/32601/AZD1208-a-potent-and-selective-pan-Pim-kinase
# Chain of Tyrosine-protein kinase BTK (Homo sapiens) (Q06187 whole entry): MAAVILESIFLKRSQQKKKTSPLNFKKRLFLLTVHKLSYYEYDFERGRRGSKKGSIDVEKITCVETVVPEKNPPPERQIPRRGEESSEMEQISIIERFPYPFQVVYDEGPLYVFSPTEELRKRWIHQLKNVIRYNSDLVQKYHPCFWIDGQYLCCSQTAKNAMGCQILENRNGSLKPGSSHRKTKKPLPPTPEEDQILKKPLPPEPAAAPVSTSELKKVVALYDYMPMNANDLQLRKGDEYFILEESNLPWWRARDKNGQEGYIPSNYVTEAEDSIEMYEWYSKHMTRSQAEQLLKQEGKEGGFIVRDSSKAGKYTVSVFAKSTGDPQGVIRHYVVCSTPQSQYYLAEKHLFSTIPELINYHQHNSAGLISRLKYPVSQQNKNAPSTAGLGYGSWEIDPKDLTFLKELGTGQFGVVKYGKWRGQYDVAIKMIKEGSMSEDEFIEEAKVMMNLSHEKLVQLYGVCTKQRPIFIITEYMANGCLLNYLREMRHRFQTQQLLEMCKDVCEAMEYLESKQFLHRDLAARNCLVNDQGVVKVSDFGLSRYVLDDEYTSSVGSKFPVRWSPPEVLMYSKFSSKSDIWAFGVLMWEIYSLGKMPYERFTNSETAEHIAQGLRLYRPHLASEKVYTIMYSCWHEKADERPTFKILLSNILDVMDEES
# Chain of Serine/threonine-protein kinase pim-1 (Homo sapiens) (P11309 whole entry, looked up): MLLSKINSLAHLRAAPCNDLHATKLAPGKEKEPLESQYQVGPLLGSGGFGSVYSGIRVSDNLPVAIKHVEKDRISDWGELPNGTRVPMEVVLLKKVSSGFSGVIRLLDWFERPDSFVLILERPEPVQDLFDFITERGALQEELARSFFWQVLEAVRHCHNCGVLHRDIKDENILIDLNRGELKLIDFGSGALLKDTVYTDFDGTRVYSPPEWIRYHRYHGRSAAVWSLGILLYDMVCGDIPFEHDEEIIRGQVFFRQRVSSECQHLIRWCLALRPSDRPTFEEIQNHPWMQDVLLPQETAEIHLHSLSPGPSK
# Chain of Protein arginine N-methyltransferase 7 (Q9NVM4 whole entry): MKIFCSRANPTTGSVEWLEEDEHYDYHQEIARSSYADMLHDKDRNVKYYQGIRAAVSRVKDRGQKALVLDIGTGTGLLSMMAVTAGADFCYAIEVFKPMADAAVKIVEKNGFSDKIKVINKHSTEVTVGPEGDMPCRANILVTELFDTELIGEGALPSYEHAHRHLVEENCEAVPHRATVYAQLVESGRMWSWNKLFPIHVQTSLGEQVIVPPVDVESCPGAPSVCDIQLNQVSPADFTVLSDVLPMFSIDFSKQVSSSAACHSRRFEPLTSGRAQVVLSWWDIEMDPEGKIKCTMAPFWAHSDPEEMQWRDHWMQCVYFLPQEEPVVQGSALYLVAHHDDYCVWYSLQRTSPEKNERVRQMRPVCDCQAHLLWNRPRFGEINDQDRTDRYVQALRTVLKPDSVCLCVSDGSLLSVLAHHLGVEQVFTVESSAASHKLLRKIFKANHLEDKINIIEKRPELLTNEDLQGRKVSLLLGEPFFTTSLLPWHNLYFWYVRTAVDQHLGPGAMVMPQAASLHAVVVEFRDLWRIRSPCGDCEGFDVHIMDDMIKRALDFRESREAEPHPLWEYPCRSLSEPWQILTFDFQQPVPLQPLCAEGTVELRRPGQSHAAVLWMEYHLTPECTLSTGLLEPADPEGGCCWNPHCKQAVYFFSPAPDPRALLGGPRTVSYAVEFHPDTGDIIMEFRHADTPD
# Chain of Activated CDC42 kinase 1 (Q07912 whole entry): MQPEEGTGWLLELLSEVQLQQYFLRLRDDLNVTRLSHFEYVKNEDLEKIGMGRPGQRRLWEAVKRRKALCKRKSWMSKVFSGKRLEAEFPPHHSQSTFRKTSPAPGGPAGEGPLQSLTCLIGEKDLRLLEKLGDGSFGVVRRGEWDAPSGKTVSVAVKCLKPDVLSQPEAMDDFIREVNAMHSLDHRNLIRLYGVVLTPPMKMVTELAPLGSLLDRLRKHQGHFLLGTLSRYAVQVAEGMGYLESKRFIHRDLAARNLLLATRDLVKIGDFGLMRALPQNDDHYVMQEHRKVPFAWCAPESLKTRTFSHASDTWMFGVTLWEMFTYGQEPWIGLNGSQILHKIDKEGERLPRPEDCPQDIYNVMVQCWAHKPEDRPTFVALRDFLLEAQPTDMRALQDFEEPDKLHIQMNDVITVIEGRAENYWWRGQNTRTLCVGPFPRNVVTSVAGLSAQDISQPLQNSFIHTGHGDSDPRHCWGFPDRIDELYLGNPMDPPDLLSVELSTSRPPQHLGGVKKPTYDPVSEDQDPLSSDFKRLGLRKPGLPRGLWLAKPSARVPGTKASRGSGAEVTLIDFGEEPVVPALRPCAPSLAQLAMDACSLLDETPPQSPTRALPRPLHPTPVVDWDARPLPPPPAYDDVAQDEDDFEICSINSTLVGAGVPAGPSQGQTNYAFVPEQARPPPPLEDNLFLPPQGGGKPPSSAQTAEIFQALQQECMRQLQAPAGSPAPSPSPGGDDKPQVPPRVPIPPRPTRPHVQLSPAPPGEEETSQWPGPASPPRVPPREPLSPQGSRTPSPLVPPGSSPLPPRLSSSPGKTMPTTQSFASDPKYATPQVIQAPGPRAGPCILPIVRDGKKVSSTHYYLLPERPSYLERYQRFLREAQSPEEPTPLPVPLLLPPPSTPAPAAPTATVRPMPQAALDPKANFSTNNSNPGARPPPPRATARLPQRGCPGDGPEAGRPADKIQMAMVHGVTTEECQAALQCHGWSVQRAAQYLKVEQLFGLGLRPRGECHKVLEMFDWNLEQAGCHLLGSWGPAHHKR
# Chain of Protein-arginine deiminase type-4 (Q9UM07 whole entry): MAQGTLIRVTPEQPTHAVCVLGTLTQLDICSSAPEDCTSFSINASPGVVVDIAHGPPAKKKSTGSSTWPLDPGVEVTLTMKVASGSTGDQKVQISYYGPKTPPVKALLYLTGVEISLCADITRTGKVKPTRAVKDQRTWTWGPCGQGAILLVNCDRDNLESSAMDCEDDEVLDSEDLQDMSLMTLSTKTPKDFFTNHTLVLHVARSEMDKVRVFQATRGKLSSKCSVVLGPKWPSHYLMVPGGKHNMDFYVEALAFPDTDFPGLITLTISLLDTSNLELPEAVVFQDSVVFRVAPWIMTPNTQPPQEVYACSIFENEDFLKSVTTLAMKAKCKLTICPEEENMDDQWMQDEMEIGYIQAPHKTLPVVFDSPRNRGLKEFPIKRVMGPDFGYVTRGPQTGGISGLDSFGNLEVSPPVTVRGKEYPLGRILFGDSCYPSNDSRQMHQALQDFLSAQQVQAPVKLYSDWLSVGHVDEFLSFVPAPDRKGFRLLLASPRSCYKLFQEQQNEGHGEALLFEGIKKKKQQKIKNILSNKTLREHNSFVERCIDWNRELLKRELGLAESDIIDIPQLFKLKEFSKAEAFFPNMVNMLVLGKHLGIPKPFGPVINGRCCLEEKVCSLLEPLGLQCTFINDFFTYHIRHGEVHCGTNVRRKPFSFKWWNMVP
# Chain of Serine/threonine-protein kinase pim-2 (Homo sapiens) (Q9P1W9 whole entry, looked up): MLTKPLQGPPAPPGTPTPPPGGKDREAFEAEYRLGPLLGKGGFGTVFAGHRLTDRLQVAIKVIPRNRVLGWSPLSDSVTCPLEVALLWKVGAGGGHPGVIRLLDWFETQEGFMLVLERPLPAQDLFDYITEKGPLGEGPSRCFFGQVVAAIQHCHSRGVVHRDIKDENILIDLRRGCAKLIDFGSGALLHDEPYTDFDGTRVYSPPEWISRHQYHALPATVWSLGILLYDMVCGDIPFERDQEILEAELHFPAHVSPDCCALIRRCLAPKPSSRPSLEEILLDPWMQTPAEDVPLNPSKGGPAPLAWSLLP
smiles,measurement,setting,value
C=CC(=O)Nc1cc(-n2c(=O)ccc3cnc4ccc(-c5ccc(NS(C)(=O)=O)cc5)cc4c32)ccc1C,GIC50,[1],2540 nM
same,GIC50,[2],> 10 µM
same,GIC50,[3],> 50 µM
same,GIC50,[4],2460 nM
same,GIC50,[5],5.37 µM
same,GIC50,[6],2460 nM
same,GIC50,[7],2540 nM
same,GIC50,[8],> 10 µM
same,GIC50,[9],10 µM
same,GIC50,[10],> 10 µM
same,GIC50,[11],25 nM
same,GIC50,[12],5.37 µM
same,GIC50,[13],4.38 µM
same,GIC50,[14],4.38 µM
CCn1c(-c2nc3cc(C(=O)N4CCCC(N)C4)ccc3n2C)cc2ccccc21 (stereo unspecified),IC50,[15],50 nM
c1ccc(-c2oc3ncnc(NC[C@@H]4CCCO4)c3c2-c2ccccc2)cc1,IC50,Activated CDC42 kinase 1,2410 nM
CC1=C(C)C(=O)C(C(C)(C)CC(=O)N(CCCCSC[C@H]2O[C@@H](n3cnc4c(N)ncnc43)[C@@H]3OC(C)(C)O[C@@H]32)Cc2cccc(-c3ccc(Cl)cc3)c2)=C(C)C1=O,IC50,[16],> 40000 nM
CNC(=O)Nc1ccc(-c2nc(N3CC4CCC(C3)O4)c3cnn(C4CCC5(CC4)OCCO5)c3n2)cc1,ED50,[17],200 nM
N[C@@H]1CCCN(c2c(/C=C3\SC(=O)NC3=O)cccc2-c2ccccc2)C1,GI50,[18],< 1000 nM
same,GI50,[19],< 1000 nM
same,GI50,[20],< 1000 nM
